Results taken from US20240360148A1 (SUVALENT THERAPEUTICS, INC., priority 2021, published 2024).

What was measured:
[1] = biological target: SAE1 (Homo sapiens (Human), UniProt Q9UBE0+Q9UBT2); experiment: SAE High Throughput Biochemical Assay (HTRF), 15 min preincubation; details: read-out: 15 min preincubation HTRF IC50 (μM) Ave, SAE1 12.5 nM, ATP 100 μM
Outline: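 SAE1 (12.5 nM) was preincubated with compound for 15 min at RT in HEPES pH 7.5, 0.1% BSA, 10 mM MgCl2. The reaction was then started with SUMO-GST and UBC9-His (40 nM each) plus 100 μM ATP for 45 min. After KF stop, HTRF (anti-GST-XL665/anti-His-EuK) was read at 2 h and overnight; some compounds were tested singly at 25 micromolar as percent of control.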

[2] = system: sumoylation levels (SUMO 2/3 conjugates) in HCT-116 cells; experiment: HCT-116 4 Hour Cell Assay (Western, SUMO 2/3 conjugates); format: cell-based; details: Homo sapiens, HCT-116, 4 h, 4 h treatment, Anti-Sumo 2-3 immunoblot, read-out: HCT-116 Western 4 h IC50 (μM) Ave
Outline: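 Cells treated 4 h with 11 three-fold dilutions from 25 μM; lysed in RIPA with NEM and Benzonase. Non-reducing SDS-PAGE immunoblot with anti-SUMO 2/3 mAb, IRDye fluorescent detection; conjugate signal normalized to total protein stain, IC50 from quantified bands.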

Chain of SAE1 (Q9UBE0 whole entry): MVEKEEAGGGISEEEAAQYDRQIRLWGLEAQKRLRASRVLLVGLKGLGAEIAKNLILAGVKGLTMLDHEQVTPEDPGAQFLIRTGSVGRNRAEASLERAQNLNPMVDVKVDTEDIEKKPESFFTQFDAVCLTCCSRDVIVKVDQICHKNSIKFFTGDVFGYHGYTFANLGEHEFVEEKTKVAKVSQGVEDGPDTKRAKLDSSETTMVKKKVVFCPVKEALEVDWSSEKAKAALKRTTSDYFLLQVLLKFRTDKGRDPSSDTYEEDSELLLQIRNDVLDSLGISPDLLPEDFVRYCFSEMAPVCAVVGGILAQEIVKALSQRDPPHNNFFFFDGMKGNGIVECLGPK
Chain of SAE1 (Q9UBT2 whole entry): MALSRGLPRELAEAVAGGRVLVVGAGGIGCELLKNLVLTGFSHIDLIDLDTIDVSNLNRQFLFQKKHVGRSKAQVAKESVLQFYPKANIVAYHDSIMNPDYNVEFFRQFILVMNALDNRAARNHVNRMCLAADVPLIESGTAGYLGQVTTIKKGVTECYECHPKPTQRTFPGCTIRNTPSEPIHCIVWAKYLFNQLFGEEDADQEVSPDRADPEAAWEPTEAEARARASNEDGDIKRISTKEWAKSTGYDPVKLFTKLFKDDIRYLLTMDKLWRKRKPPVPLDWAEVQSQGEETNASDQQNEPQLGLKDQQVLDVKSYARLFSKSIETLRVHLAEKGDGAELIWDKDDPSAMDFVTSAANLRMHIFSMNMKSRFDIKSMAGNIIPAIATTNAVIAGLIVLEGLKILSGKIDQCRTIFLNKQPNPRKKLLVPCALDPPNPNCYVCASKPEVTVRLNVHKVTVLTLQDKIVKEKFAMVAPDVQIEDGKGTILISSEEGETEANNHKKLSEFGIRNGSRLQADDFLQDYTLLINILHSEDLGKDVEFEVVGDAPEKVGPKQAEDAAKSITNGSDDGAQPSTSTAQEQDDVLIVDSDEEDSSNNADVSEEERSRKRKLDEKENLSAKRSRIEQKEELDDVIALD

| IC50 [2] [µM] | SMILES | IC50 [1] [µM] |
| --- | --- | --- |
| 0.62 | CCn1cc(-c2ccccc2[C@@H]2CN(C(=O)/C=C/CNC(C)C)Cc3sc(C#N)cc32)c(C(F)(F)F)n1 [Example 105, (S,E)-4-(2-(1-Ethyl-3-(trifluoromethyl)-1 H-pyrazol-4-yl)phenyl)-6-(4-(isopropylamino)but-2-enoyl)-4,5,6,7-tetrahydrothieno[2,3-c]pyridine-2-carbonitrile] | 2.42 |
| 0.283 | CCn1cc(-c2c(F)cccc2[C@@H]2CN(C(=O)/C=C/CNC(C)C)Cc3sc(C#N)cc32)c(C(F)(F)F)n1 [Example 106, (S,E)-4-(2-(1-Ethyl-3-(trifluoromethyl)-1H pyrazol-4-yl)-3-fluorophenyl)-6-(4-(isopropylamino)but-2-enoyl)-4,5,6,7-tetrahydrothieno[2,3-c]pyridine-2-carbonitrile] | 0.8 |
| 0.226 | CCn1cc(-c2ccccc2[C@@H]2CN(C(=O)/C=C/C3CCCN3)Cc3sc(C#N)cc32)c(C(F)(F)F)n1 (stereo partly drawn) [Example 107, (4S)-4-(2-(1-Ethyl-3-(trifluoromethyl)-1 H-pyrazol-4-yl)phenyl)-6-((E)-3-(pyrrolidin-2-yl)acryloyl)-4,5,6,7-tetrahydrothieno[2,3-c]pyridine-2-carbonitrile] | 2.07 |
| 0.909 | CCn1cc(-c2ccccc2[C@@H]2CN(C(=O)/C=C/C3CCCCN3)Cc3sc(C#N)cc32)c(C(F)(F)F)n1 (stereo partly drawn) [Example 111, (4S)-4-(2-(1-Ethyl-3-(trifluoromethyl)-1H pyrazol-4-yl)phenyl)-6-((E)-3-(piperidin-2-yl)acryloyl)-4,5,6,7-tetrahydrothieno[2,3-c]pyridine-2-carbonitrile] | 3.36 |
| 0.209 | CCn1cc(-c2ccccc2[C@@H]2CN(C(=O)/C=C/[C@@H]3CCCN3)Cc3sc(C#N)cc32)c(C(F)(F)F)n1 [Example 112] | 0.76 |
| 1.79 | CCn1cc(-c2ccccc2[C@@H]2CN(C(=O)/C=C/[C@H]3CCCN3)Cc3sc(C#N)cc32)c(C(F)(F)F)n1 [Example 113, (S)-4-(2-(1-Ethyl-3-(trifluoromethyl)-1 H-pyrazol-4-yl)phenyl)-6-((E)-3-((R)-pyrrolidin-2-yl)acryloyl)-4,5,6,7-tetrahydrothieno[2,3-c]pyridine-2-carbonitrile] | 1.61 |
| 0.262 | CCn1cc(-c2ccccc2[C@@H]2CN(C(=O)/C=C/[C@@H]3C[C@@H](C)CN3)Cc3sc(C#N)cc32)c(C(F)(F)F)n1 [Example 114, (S)-4-(2-(1-Ethyl-3-(trifluoromethyl)-1 H-pyrazol-4-yl)phenyl)-6-((E)-3-((2S, 4R)-4-methylpyrrolidin-2-yl)acryloyl)-4,5,6,7-tetrahydrothieno[2,3-c]pyridine-2-carbonitrile] | 1.19 |
| 0.6 | CCn1cc(-c2ccccc2[C@@H]2CN(C(=O)/C=C/[C@@H]3CCCCN3)Cc3sc(C#N)cc32)c(C(F)(F)F)n1 [Example 115, (S)-4-(2-(1-Ethyl-3-(trifluoromethyl)-1H pyrazol-4-yl)phenyl)-6-((E)-3-((S)-piperidin-2-yl)acryloyl)-4,5,6,7-tetrahydrothieno[2,3-c]pyridine-2-carbonitrile] | 1.95 |
| 0.202 | CCn1cc(-c2ccccc2[C@@H]2CN(C(=O)/C=C/[C@@H]3CC4(CC4)CN3)Cc3sc(C#N)cc32)c(C(F)(F)F)n1 [Example 116, (S)-6-((E)-3-((S)—S-Azaspiro(2.4]heptan-6-yl)acryloyl)-4-(2-(1-ethyl-3-(trifluoromethyl)-1H pyrazol-4-yl)phenyl)-4,5,6,7-tetrahydrothieno[2,3-c]pyridine-2-carbonitrile] | 1.49 |
| 0.427 | CCn1cc(-c2ccccc2[C@@H]2CN(C(=O)/C=C/[C@@H]3C[C@@H]4C[C@@H]4N3)Cc3sc(C#N)cc32)c(C(F)(F)F)n1 [Example 117, (S)-6-((E)-3-((1S,3S,5S)-2-Azabicyclo[3.1.0]hexan-3-yl)acryloyl)-4-(2-(1-ethyl-3-(trifluoromethyl)-1H pyrazol-4-yl)phenyl)-4,5,6,7-tetrahydrothieno[2,3-c]pyridine-2-carbonitrile] | 1.16 |
| 0.121 | CCn1cc(-c2c(F)cccc2[C@@H]2CN(C(=O)/C=C/[C@@H]3C[C@H](OC)CN3)Cc3sc(C#N)cc32)c(C(F)(F)F)n1 [Example 119, (S)-4-(2-(1-Ethyl-3-(trifluoromethyl)-1H pyrazol-4-yl)-3-fluorophenyl)-6-((E)-3-((2S,4S)-4-methoxypyrrolidin-2-yl)acryloyl)-4,5,6,7-tetrahydrothieno[2,3-c]pyridine-2-carbonitrile] | 0.44 |
| 0.383 | CCn1cc(-c2c(F)cccc2[C@@H]2CN(C(=O)/C=C/[C@@H]3C[C@@H](OC)CN3)Cc3sc(C#N)cc32)c(C(F)(F)F)n1 [Example 120, (S)-4-(2-(1-Ethyl-3-(trifluoromethyl)-1H pyrazol-4-yl)-3-fluorophenyl)-6-((E)-3-((2S,4R)-4-methoxypyrrolidin-2-yl)acryloyl)-4,5,6,7-tetrahydrothieno[2,3-c]pyridine-2-carbonitrile] | 0.31 |
| 0.577 | CCn1cc(-c2c(F)cccc2[C@@H]2CN(C(=O)/C=C/[C@@H]3C[C@@H](F)CN3)Cc3sc(C#N)cc32)c(C(F)(F)F)n1 [Example 121, (S)-4-(2-(1-Ethyl-3-(trifluoromethyl)-1H pyrazol-4-yl)-3-fluorophenyl)-6-((E)-3-((2S,4R)-4-fluoropyrrolidin-2-yl)acryloyl)-4,5,6,7-tetrahydrothieno[2,3-c]pyridine-2-carbonitrile] | 0.43 |
| 0.0631 | CCn1cc(-c2c(F)cccc2[C@@H]2CN(C(=O)/C=C/[C@@H]3C[C@H](F)CN3)Cc3sc(C#N)cc32)c(C(F)(F)F)n1 [Example 122, (S)-4-(2-(1-Ethyl-3-(trifluoromethyl)-1H pyrazol-4-yl)-3-fluorophenyl)-6-((E)-3-((2S,4S)-4-fluoropyrrolidin-2-yl)acryloyl)-4,5,6,7-tetrahydrothieno[2,3-c]pyridine-2-carbonitrile] | 0.12 |
| 0.178 | CCn1cc(-c2c(F)cccc2[C@@H]2CN(C(=O)/C=C/[C@@H]3C[C@@H]4C[C@@H]4N3)Cc3sc(C#N)cc32)c(C(F)(F)F)n1 [Example 123, (S)-6-((E)-3-((1S,3S,5S)-2-Azabicyclo[3.1.0]hexan-3-yl)acryloyl)-4-(2-(1-ethyl-3-(trifluoromethyl)-1H pyrazol-4-yl)-3-fluorophenyl)-4,5,6,7-tetrahydrothieno[2,3-c]pyridine-2-carbonitrile] | 1.17 |
| 0.543 | CCn1cc(-c2ccccc2[C@@H]2CN(C(=O)/C=C/CN)Cc3sc(C#N)cc32)c(C(F)(F)F)n1 [Example 125, (S, E)-6-(4-Aminobut-2-enoyl)-4-(2-(1-ethyl-3-(trifluoromethyl)-1 H-pyrazol-4-yl)phenyl)-4,5,6,7-tetrahydrothieno[2,3-c]pyridine-2-carbonitrile] | 1.23 |
| 0.225 | CCn1cc(-c2c(F)cccc2[C@@H]2CN(C(=O)/C=C/CNC(C)(C)C)Cc3sc(C#N)cc32)c(C(F)(F)F)n1 [Example 127, (S, E)-6-(4-(tert-butylamino)but-2-enoyl)-4-(2-(1-ethyl-3-(trifluoromethyl)-1 H pyrazol-4-yl)-3-fluorophenyl)-4,5,6,7-tetrahydrothieno[2,3-c]pyridine-2-carbonitrile] | 1.07 |
| 0.0658 | Cn1cc(-c2c(F)cccc2[C@@H]2CN(C(=O)/C=C/[C@@H]3CCCN3)Cc3sc(C#N)cc32)c(C(F)(F)F)n1 [Example 128, (S)-4-(3-Fluoro-2-(1-methyl-3-(trifluoromethyl)-1H-pyrazol-4-yl)phenyl)-6-((E)-3-((S)pyrrolidin-2-yl)acryloyl)-4,5,6,7-tetrahydrothieno[2,3-c]pyridine-2-carbonitrile] | 0.75 |
| 0.249 | CNC/C=C/C(=O)N1Cc2sc(C#N)cc2[C@H](c2cccc(F)c2-c2cn(C)nc2C(F)(F)F)C1 [Example 129, (S,E)-4-(3-Fluoro-2-(1-methyl-3-(trifluoromethyl)-1 H pyrazol-4-yl)phenyl)-6-(4-(methylamino)but-2-enoyl)-4,5,6,7-tetrahydrothieno[2,3-c]pyridine-2-carbonitrile] | 0.505 |
| 0.547 | CCn1cc(-c2ccccc2[C@@H]2CN(C(=O)C#CCN(C)C)Cc3sc(C#N)cc32)c(C(F)(F)F)n1 [Example 132, (S)-6-(4-(Dimethylamino)but-2-ynoyl)-4-(2-(1-ethyl-3-(trifluoromethyl)-1 H-pyrazol-4-yl)phenyl)-4,5,6,7-tetrahydrothieno[2,3-c]pyridine-2-carbonitrile] | 0.18 |
| 1.2 | CCn1cc(-c2ccccc2[C@@H]2CN(C(=O)C#CCN)Cc3sc(C#N)cc32)c(C(F)(F)F)n1 [Example 135, (S)-6-(4-Aminobut-2-ynoyl)-4-(2-(1-ethyl-3-(trifluoromethyl)-1H pyrazol-4-yl)phenyl)-4,5,6,7-tetrahydrothieno[2,3-c]pyridine-2-carbonitrile] | 0.51 |
| 2.53 | CCn1cc(-c2ccccc2[C@@H]2CN(C(=O)C#CC3(N)CC3)Cc3sc(C#N)cc32)c(C(F)(F)F)n1 [Example 136, (S)-6-(3-(1-Aminocyclopropyl)propioloyl)-4-(2-(1-ethyl-3-(trifluoromethyl)-1 H-pyrazol-4-yl)phenyl)-4,5,6,7-tetrahydrothieno[2,3-c]pyridine-2-carbonitrile] | 4.13 |
